# According to the METLIN SMRT retention time set (Domingo-Almenara et al. 2019):
# Assay: gradient 5% acetonitrile 3 min, to 50% in 2 min, to 85% in 15 min, held 3 min, 100 µL/min
# Conditions: column: Zorbax Extend-C18 2.1 x 50 mm; eluents: water / acetonitrile, 0.1% formic acid
# How it was run: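 Retention times of pure standards were taken from adduct peaks that were selected by computer and manually inspected. Over 3 months, mixtures of ~100 molecules were run by HPLC–quadrupole time-of-flight mass spectrometry in positive and negative ionization mode. The Zorbax Extend-C18 column (2.1 × 50 mm, 1.8 μm) ran at 100 μL/min in water and acetonitrile, each containing 0.1% formic acid, with 40 μL dead volume and 900 μL dwell volume.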
row,Compound,RP-LC retention time [s]
1,CCOC(=O)c1c(S(=O)(=O)N2CCC(C(=O)NCc3ccco3)CC2)c(C)n(C)c1C,740
2,CCN1C(=O)COc2ccc(-c3nc(NC(=O)c4cccs4)sc3C)cc21,990
3,COCCCNC(=O)N1CCN(Cc2nc3cccnc3n2-c2cc(C)cc(C)c2)CC1,650
4,Nc1c(C(=O)Nc2ccc([N+](=O)[O-])cc2)oc2ccccc12,880
5,Fc1ccc(CN2CCCCC2c2nc(-c3cnccn3)no2)cc1F (stereo unspecified),849
6,O=C(c1ccc2c(c1)OCO2)N1CC2CN(S(=O)(=O)c3ccc(F)cc3)CC(C1)O2,774
7,O=C(Nc1ccccc1)N1CCN(c2nc(-c3ccccc3)ns2)CC1,1020
8,O=C1NC2(CCN(C(=O)Nc3ccccc3)CC2)Oc2ccccc21,721
9,Cc1cc(C)cc(NC(=O)COc2cccc3c(=O)n(C)ccc23)c1,844
10,CCS(=O)(=O)Nc1cccc(C(=C2CCCCC2)c2cnc[nH]2)c1,738
11,CCOc1ccc(CNC(=O)C2CCN(S(=O)(=O)c3cn(CC)cn3)CC2)cc1,696
12,O=C(NCc1ccccc1Cl)c1nnc(-c2ccc(S(=O)(=O)N3CCCC3)cc2)o1,934
13,CS(=O)(=O)N1CCCC(C(=O)Nc2nc(-c3nc4ccccc4s3)cs2)C1 (stereo unspecified),800
14,CCCOc1ccc(C(=O)N(Cc2ccc(Br)o2)C2CCS(=O)(=O)C2)cc1 (stereo unspecified),1010
15,O=S(=O)(c1cccc2cccnc12)N1CCCn2nc(-c3cccs3)cc2C1,900
16,Cc1noc(C)c1CCC(=O)NCCOc1ccc2nnc(-c3cccc(F)c3)n2n1,633
17,CCN1CCn2cc(S(=O)(=O)Nc3ccc(F)c(F)c3)cc2C1=O,727
18,O=C(NCC1CCCO1)C1CCN(C(=O)c2cccn2-c2cccnc2)CC1 (stereo unspecified),602

row,Compound,RP-LC retention time [s]
1,O=C(Nc1ccc2c(c1)OCCO2)N1CCN(Cc2ccccc2)c2ncccc21,731
2,O=C(NCc1cccs1)c1c(O)c2cccnc2n(Cc2ccccc2)c1=O,1310
3,O=C(COc1ccccc1)Nc1nonc1NC(=O)COc1ccccc1,854
4,CCc1ccc(C2=C(C)C(N3CCC(C(=O)NCCN4CCCC4)CC3)=NS2(=O)=O)cc1,671
5,O=C(Nc1cccc(Cl)c1F)C1CC(=O)N(c2ccc3c(c2)CCN3C(=O)C2CC2)C1 (stereo unspecified),831
6,COC(=O)c1cc2n(n1)CC(C)(C(=O)NC1CCCCC1)N(c1ccc(F)cc1)C2=O (stereo unspecified),847
7,CCc1nc(-c2ccc(-c3noc(-c4ccncc4)n3)cc2)cs1,1230
8,COc1ccc(-c2ncc3c(n2)CCN(C(=O)Nc2ccc(C)cc2Cl)C3)cc1,1020
9,O=c1nc(NCc2ccccc2)c2ccccc2[nH]1,620
10,Cc1cccc(-c2nc(CNC(=O)CCC(F)(F)F)no2)c1,870
11,Cc1cccc(C)c1NC(=O)Cn1cnc2nc(N3CCCC(C(=O)NC4CC4)C3)sc2c1=O (stereo unspecified),678
12,CCc1nc2cc(-c3noc(Cc4cccc(Cl)c4)n3)ccc2o1,1170
13,Cc1nc2ccccc2nc1SCC(=O)c1ccccc1,970
14,O=C(c1nnn2c1COC(c1ccc(Cl)cc1)C2)N1CCN(C(=O)c2c(F)cccc2F)CC1 (stereo unspecified),951
15,CCCCC(=O)Nc1ccc2c(c1)nc(CN1CCN(C(=O)c3ccco3)CC1)n2C,619
16,COc1ccc(C2Cn3cnc(C(=O)N4CCC(C(=O)NC5CCCCCCC5)CC4)c3CO2)cc1 (stereo unspecified),862
17,O=C(Cn1c(=O)oc2ccccc21)N1C[C@@H](CO)[C@H](c2ccccn2)C1,591
18,Cc1ccccc1NC(=O)COc1cccc2c(=O)n(C)ccc12,758
